{"source": "ChEMBL document CHEMBL3414432", "about": "“Discovery of N-benzoxazol-5-yl-pyrazole-4-carboxamides as nanomolar SQR inhibitors” (Eur J Med Chem, 2015)", "key": {"[1]": {"assay": "Inhibition of porcine heart SQR in SCR complex assessed as reduction in ubiquinol-cytochrome c reductase (complex 3) activity by measuring cytochrome c level using succinate and DCIP substrate by spectrophotometry", "parameters": "species or system Sus scrofa"}, "Sus scrofa [2]": {"species_on_record": "Sus scrofa", "assay": "Potency index, ratio of Ki for penthiopyrad to Ki for compound against porcine heart SCR"}, "[3]": {"assay": "Inhibition of porcine heart SCR using succinate and cytochrome c substrate at 23 degC by spectrophotometry", "parameters": "species or system Sus scrofa"}, "Sus scrofa [4]": {"species_on_record": "Sus scrofa", "assay": "Inhibition of porcine heart electron transport protein complex 3 in SCR complex at 10 uM using DBH2 and cytochrome c substrate by spectrophotometry"}, "[5]": {"target": "Succinate-ubiquinone oxidoreductase (Sus scrofa) (UniProt A5GZW8+D0VWV4)", "assay": "Potency index, ratio of Ki for penthiopyrad to Ki for compound against porcine heart SQR in SCR complex", "assay_type": "protein-complex assay"}, "[6]": {"assay": "Non-competitive inhibition of porcine heart SCR with respect to cytochrome c substrate at 23 degC by double-reciprocal plot", "parameters": "species or system Sus scrofa"}, "[7]": {"target": "T1, Succinate-ubiquinone oxidoreductase (Sus scrofa, UniProt A5GZW8+D0VWV4)", "T1 sequence (A5GZW8 whole entry)": "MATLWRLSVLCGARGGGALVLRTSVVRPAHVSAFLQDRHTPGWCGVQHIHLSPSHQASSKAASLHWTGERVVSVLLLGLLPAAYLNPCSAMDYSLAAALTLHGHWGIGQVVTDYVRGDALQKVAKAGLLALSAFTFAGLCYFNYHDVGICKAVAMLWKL", "T1 sequence (D0VWV4 whole entry)": "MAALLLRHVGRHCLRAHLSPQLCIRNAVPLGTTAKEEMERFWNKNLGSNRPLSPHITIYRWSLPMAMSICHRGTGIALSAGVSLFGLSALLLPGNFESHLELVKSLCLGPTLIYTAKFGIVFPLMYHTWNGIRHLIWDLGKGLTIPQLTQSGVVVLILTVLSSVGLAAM", "assay": "Non-competitive inhibition of porcine heart SQR in SCR complex with respect to DCIP substrate at 23 degC by double-reciprocal plot", "assay_type": "protein-complex assay"}, "[8]": {"target": "T1, Succinate-ubiquinone oxidoreductase", "assay": "Inhibition of porcine heart SQR in SCR complex assessed as reduction in ubiquinol-cytochrome c reductase (complex 3) activity by measuring cytochrome c level using succinate and DCIP substrate at 23 degC by spectrophotometry", "assay_type": "protein-complex assay"}, "[9]": {"assay": "Inhibition of bovine heart SQR", "parameters": "species or system Bos taurus"}, "[10]": {"assay": "Inhibition of rat liver SQR"}}, "note": "pIC50, pKi: −log10 of the molar value.", "data": [{"compound": "Cn1cc(C(=O)Nc2ccc3oc(SCc4ccc(F)cc4)nc3c2)c(C(F)(F)F)n1", "values": [{"measurement": "pIC50", "setting": "[1]", "result": 6.68}]}, {"compound": "Cc1ccc(CSc2nc3cc(NC(=O)c4cn(C)nc4C(F)(F)F)ccc3o2)cc1", "values": [{"measurement": "pIC50", "setting": "[1]", "result": 6.57}]}, {"compound": "Cn1cc(C(=O)Nc2ccc3oc(SCc4ccc(F)c(F)c4)nc3c2)c(C(F)(F)F)n1", "values": [{"measurement": "pIC50", "setting": "[1]", "result": 6.89}]}, {"compound": "COc1ccc(CSc2nc3cc(NC(=O)c4cn(C)nc4C(F)F)ccc3o2)cc1", "values": [{"measurement": "pIC50", "setting": "[1]", "result": 6.68}]}, {"compound": "Cn1cc(C(=O)Nc2ccc3oc(SCc4ccc(OC(F)(F)F)cc4)nc3c2)c(C(F)F)n1", "values": [{"measurement": "Ratio Ki", "setting": "Sus scrofa [2]", "result": 30}, {"measurement": "pIC50", "setting": "[1]", "result": 7.42}, {"measurement": "pIC50", "setting": "[3]", "result": 7.42}, {"measurement": "inhibition", "setting": "Sus scrofa [4]", "result": 13, "unit": "%"}, {"measurement": "Ratio Ki", "setting": "[5]", "result": 30}, {"measurement": "pKi", "setting": "[6]", "result": 7.37}, {"measurement": "pKi", "setting": "[7]", "result": 7.96}, {"measurement": "pIC50", "setting": "[8]", "result": 7.96}]}, {"compound": "CC(C)CC(C)c1sccc1NC(=O)c1cn(C)nc1C(F)(F)F", "note": "(configuration not stated) [PENTHIOPYRAD]", "values": [{"measurement": "pIC50", "setting": "[1]", "result": 5.88}, {"measurement": "pIC50", "setting": "[3]", "result": 5.88}, {"measurement": "inhibition", "setting": "Sus scrofa [4]", "result": "< 10", "unit": "%"}, {"measurement": "pKi", "setting": "[6]", "result": 5.86}, {"measurement": "pKi", "setting": "[7]", "result": 6.49}, {"measurement": "pIC50", "setting": "[8]", "result": 6.28}]}, {"compound": "COc1ccc(CSc2nc3cc(NC(=O)c4cn(C)nc4C(F)(F)F)ccc3o2)cc1", "values": [{"measurement": "pIC50", "setting": "[1]", "result": 6.55}]}, {"compound": "Cn1cc(C(=O)Nc2ccc3oc(SCc4cccc(Cl)c4)nc3c2)c(C(F)F)n1", "values": [{"measurement": "pIC50", "setting": "[1]", "result": 7.09}]}, {"compound": "Cn1cc(C(=O)Nc2ccc3oc(SCc4ccc(C(F)(F)F)cc4)nc3c2)c(C(F)F)n1", "values": [{"measurement": "pIC50", "setting": "[1]", "result": 7.41}]}, {"compound": "Cn1cc(C(=O)Nc2ccc3oc(SCc4ccc(F)cc4)nc3c2)c(C(F)F)n1", "values": [{"measurement": "pIC50", "setting": "[1]", "result": 7.00}]}, {"compound": "Cn1cc(C(=O)Nc2ccc3oc(SCc4cccc(Br)c4)nc3c2)c(C(F)F)n1", "values": [{"measurement": "pIC50", "setting": "[1]", "result": 7.21}]}, {"compound": "Cn1cc(C(=O)Nc2ccc3oc(SCc4ccc(C(F)(F)F)cc4)nc3c2)c(C(F)(F)F)n1", "values": [{"measurement": "pIC50", "setting": "[1]", "result": 7.08}]}, {"compound": "Cn1cc(C(=O)Nc2ccc3oc(SCc4ccc(F)c(F)c4)nc3c2)c(C(F)F)n1", "values": [{"measurement": "pIC50", "setting": "[1]", "result": 7.00}]}, {"compound": "Cn1cc(C(=O)Nc2ccc3oc(SCc4cccc(F)c4)nc3c2)c(C(F)F)n1", "values": [{"measurement": "pIC50", "setting": "[1]", "result": 6.61}]}, {"compound": "Cn1cc(C(=O)Nc2ccc3oc(SCc4ccc(C#N)cc4)nc3c2)c(C(F)(F)F)n1", "values": [{"measurement": "pIC50", "setting": "[1]", "result": 6.25}]}, {"compound": "Cn1cc(C(=O)Nc2ccc3oc(SCc4ccc(Cl)cc4)nc3c2)c(C(F)F)n1", "values": [{"measurement": "pIC50", "setting": "[1]", "result": 7.24}]}, {"compound": "COc1[nH]c(=O)c(C(=O)[C@@H](C)C[C@H](C)[C@@H](Cl)CCl)c(O)c1OC", "note": "[ATPENIN A5]", "values": [{"measurement": "pIC50", "setting": "[9]", "result": 8.44}, {"measurement": "pIC50", "setting": "[10]", "result": 8.43}]}, {"compound": "Cn1cc(C(=O)Nc2ccc3oc(SCc4ccc(OC(F)(F)F)cc4)nc3c2)c(C(F)(F)F)n1", "values": [{"measurement": "pIC50", "setting": "[1]", "result": 7.06}]}, {"compound": "Cn1cc(C(=O)Nc2ccc3oc(SCc4cccc(Br)c4)nc3c2)c(C(F)(F)F)n1", "values": [{"measurement": "pIC50", "setting": "[1]", "result": 6.92}]}, {"compound": "Cn1cc(C(=O)Nc2ccc3oc(SCc4ccc(C#N)cc4)nc3c2)c(C(F)F)n1", "values": [{"measurement": "pIC50", "setting": "[1]", "result": 6.40}]}, {"compound": "Cn1cc(C(=O)Nc2ccc3oc(SCc4cccc(F)c4)nc3c2)c(C(F)(F)F)n1", "values": [{"measurement": "pIC50", "setting": "[1]", "result": 6.38}]}, {"compound": "Cn1cc(C(=O)Nc2ccc3oc(SCc4cccc(Cl)c4)nc3c2)c(C(F)(F)F)n1", "values": [{"measurement": "pIC50", "setting": "[1]", "result": 6.83}]}, {"compound": "Cn1cc(C(=O)Nc2ccc3oc(SCc4ccc(Cl)cc4)nc3c2)c(C(F)(F)F)n1", "values": [{"measurement": "pIC50", "setting": "[1]", "result": 6.95}]}, {"compound": "Cc1ccc(CSc2nc3cc(NC(=O)c4cn(C)nc4C(F)F)ccc3o2)cc1", "values": [{"measurement": "pIC50", "setting": "[1]", "result": 6.67}]}]}
